Experimental data as given in patent US7622475B2, “EP2 agonists” (Pfizer Inc, priority 2006, dated 2009).

Tests used:
newborn piglets = conditions: brief hypoxia, in the presence of PG synthase inhibitors; cited from earlier work
EP2 = EP2 (Homo sapiens, UniProt P43116); set-up: expressed in transfected cells; host or cells: COS cells; conditions: COS cells transfected with the human EP2 receptor; read-out: EC50 for the stimulation of cAMP; cited from earlier work
[1] = biological target: recombinant murine EP2 receptor (Mus musculus, UniProt Q62053); conditions: fraction of the affinity of PGE2; cited from earlier work
[2] = system: ocular hypertensive non-human primates; experiment: IOP change after topical application in ocular hypertensive non-human primates; assay type: in vivo; conditions: for Tmax: time point of maximum IOP reduction
Description: Tables 2 and 3 describe the intraocular pressure (IOP) changes that were seen following topical application of EP2 agonists in ocular hypertensive non-human primates. Typically, compounds in suitable formulations were dosed topically and IOP was measured using tonometry. Changes in IOP between vehicle treatment followed by treatment with EP2 compounds were assessed over time in the dosed hypertensive eye. ΔΔ Emax reflects the difference in IOP from EP2 compound-treated eye over that seen for vehicle-treated eye at the timepoint wherein maximum IOP reduction for compound was seen. The percent ΔΔ Emax was the percentage change in IOP reduction conferred by compound over that for vehicle (set at 100%). Tmax represents the time point at which maximum IOP reduction of compound was observed. […] NS represents not significant. Table 2 compares acids of EP2 compound while Table 3 compares IOP response seen with esters of certain acids. Esters provide better corneal penetration and improved drug exposure in the anterior chamber compared to acids and are therefore dosed at ⅕th the dose for acids […].

[3] = system: other murine EP receptors or DP, TP, FP or IP receptors; conditions: cited from earlier work
ciliary muscle = conditions: topical ocular QD for 1 year; treated and contralateral eyes; cited from earlier work
[4] = system: murine astrocyte cultures; conditions: cited from earlier work
[5] = system: ocular hypertensive non-human primates; experiment: IOP change after topical application in ocular hypertensive non-human primates; assay type: in vivo; conditions: isopropylesters, OHT primates, NT eye

EP2, sequence (P43116 whole entry): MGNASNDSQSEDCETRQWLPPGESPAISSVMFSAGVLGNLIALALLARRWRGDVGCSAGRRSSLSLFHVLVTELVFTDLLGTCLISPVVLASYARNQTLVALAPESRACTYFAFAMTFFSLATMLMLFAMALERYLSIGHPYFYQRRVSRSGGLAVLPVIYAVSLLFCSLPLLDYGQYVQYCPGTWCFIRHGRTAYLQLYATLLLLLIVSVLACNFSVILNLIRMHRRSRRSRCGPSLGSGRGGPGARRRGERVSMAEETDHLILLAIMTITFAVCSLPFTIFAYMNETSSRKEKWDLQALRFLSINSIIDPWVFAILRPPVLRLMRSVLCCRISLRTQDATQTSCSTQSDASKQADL
recombinant murine EP2 receptor, sequence (Q62053 whole entry): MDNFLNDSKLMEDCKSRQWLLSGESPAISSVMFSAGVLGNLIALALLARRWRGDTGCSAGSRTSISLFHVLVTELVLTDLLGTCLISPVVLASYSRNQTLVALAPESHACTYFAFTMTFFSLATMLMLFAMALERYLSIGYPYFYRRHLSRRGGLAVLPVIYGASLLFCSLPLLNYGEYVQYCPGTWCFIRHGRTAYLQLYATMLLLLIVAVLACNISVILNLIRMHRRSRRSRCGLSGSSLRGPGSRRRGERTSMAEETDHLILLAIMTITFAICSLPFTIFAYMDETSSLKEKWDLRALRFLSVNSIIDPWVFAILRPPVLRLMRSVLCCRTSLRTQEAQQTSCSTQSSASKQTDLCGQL

CCCC1([C@H](O)C/C=C/[C@H]2[C@H](O)CC(=O)[C@@H]2CCCCCCC(=O)OC)CCC1 (racemic) [Butaprost, (+/−)-15-Deoxy-16S-hydroxy-17-cyclobutyl PGE1]
electrophysiological changes (VEPs and ERGs) (newborn piglets): restoration of electrophysiological changes | EC50 (EP2): ~5 µM | affinity relative to PGE2 [1]: about 1/10 | change in vivo at 0.1 % ([2]; Primates, topical, acid EP2 agonists, Conc 0.1 %, topical, vs vehicle (set at 100%), read-out: ΔΔEmax (%)): -18% | ΔΔEmax (mm Hg) ([2]; acid EP2 agonists, Conc 0.1 %, topical, dosed hypertensive eye vs vehicle): −5.5 mm Hg | Tmax ([2]; acid EP2 agonists, Conc 0.1 %): 5 h | binding to other prostanoid receptors [3]: does not bind appreciably

CCCCCC(O)c1ccc(C2CCC(=O)C2CCCCCCC(=O)O)cc1 (stereo not drawn) [AH-13205]
number of nerve bundles in ciliary muscle (ciliary muscle): doubling in the number of nerve bundles in ciliary muscle

CCCCC[C@H](O)/C=C/[C@H]1[C@H](O)CC(=O)[C@@H]1C/C=C\CCCC(=O)O [PGE2, prostaglandin E2]
synthesis and secretion of BDNF and NGF [4]: stimulate synthesis and secretion of brain-derived neurotrophic factor (BDNF) and nerve growth factor (NGF)

CC(C)OC(=O)COc1cccc(CN(Cc2ccc(-n3cccn3)cc2)S(=O)(=O)c2cccnc2)c1 [drawing 61]
ΔΔEmax (mmHg) [5]: −7.5 mmHg | ΔΔEmax (mmHg) ([2]; isopropylesters, OHT primates, OHT eye, 0.1 mg/ml topical): −14 mmHg | Tmax ([2]; isopropylesters, OHT primates): 6 h
